Source: publication PMC5659893 (2017)

Assay: second and third wash supernates of 1×10^8 RBCs/mL
Conditions: human, 37°C, up to 24 hours

Substance | not cleaved
ILPWKWPWWPWRR-NH2 | more than 90% recovered after 24 hours
RRGWALRLVLAY-NH2 | more than 90% recovered after 24 hours
